Measurements from patent US20140364445A1, “PHARMACEUTICAL COMPOSITION COMPRISING A TRPA1 ANTAGONIST AND AN ANTICHOLINERGIC AGENT” (GLENMARK PHARMACEUTICALS S.A., priority 2011, published 2014).
Read-outs that look alike come from different tables or passages of the source.

Columns and labels:
LPS induced neutrophilia [1] = assay: LPS induced neutrophilia, Compound 52 and aclidinium bromide; format: in vivo, male SD rats; details: BAL 4 h after LPS, Compound 52 3 mg/kg p.o., aclidinium 50 mcg/ml inh; for inhibition at 3 mg/kg: Rattus norvegicus, Neutrophil, po, read-out: No of neutrophils, % inhibition (mean ± S.E.M.) (converted)
Experimental: The effect of combination of Compound 52 and aclidinium bromide on LPS induced neutrophilia in male SD rats was evaluated. Animals were grouped as mentioned in Table 4.
LPS was nebulized at concentration of 100 mcg ml^−1 for 40 min at 0.4 ml/min and a pressure of 1.7 psig in a Perspex exposure chamber (1.5×1×1 ft) fitted with nebulizer (RCI Hudson). Control animals were given saline exposure under similar conditions. All the animals were treated with compounds as mentioned in Table 4. Compound 52 (3 mg/kg/5 ml) was administered orally 2 h prior to LPS and aclidinium (50 mcg/ml) was nebulized at the rate of 0.05 ml/min and exposed to the animals for 3 min prior LPS exposure.
(§1) Bronchoalveolar lavage (BAL) was done after 4 h of LPS exposure. Animals were anesthetized with urethane (1.2 gm/kg/5 mL, i.p. in normal saline) and BAL was done with PBS (3 ml). This procedure was repeated three times and the BAL fluid was pooled for the measurement of total leukocyte. Remaining BAL fluid was centrifuged immediately at 4000 rpm for 20 min. The pellet formed in the bottom of the tube was used for the smear preparation for differential leukocyte count estimation. The smeared slides were fixed by alcohol and stained using Leishman's stain further carried for differential leukocyte count.

[2] = test system: methacholine-induced bronchoconstriction; assay: Methacholine challenge test (methacholine-induced bronchoconstriction), invasive whole body plethysmograph; format: in vivo, male Dunkin Hartley guinea pig; details: for inhibition at 10 mg/kg: Cavia porcellus, read-out: % inhibition in airway resistance (Mean ± SEM)
Experimental: The effect of Compound 52, tiotropium bromide and their combination on methacholine challenge test in male Dunkin Hartley guinea pig was evaluated using invasive whole body plethysmograph (Elan™ R C, Buxco apparatus). Animals and grouped as described in Table 2.
Animals were anesthetized by intraperitonial injection of urethane (1 g/kg). The surgical process carried out in the aseptic area. Right jugular vein of anesthetized animal was exposed and cannulated with fine bore polythene tube. Trachea was also cannulated for artificial respiration and to measure airway resistance. The prepared animal was fixed in the invasive whole body plethysmograph with artificial respiration (tidal volume −7 ml). Methacholine challenge test was performed and the recordings were taken by the following schedule. • First log period: Baseline −5 min • Second log period: Normal saline −3 min • Third log period: Methacholine −3 min
This protocol was performed for all groups. Compound 52 (10 mg/kg, i.p.) was injected 4 hour prior to methacholine challenge. Tiotropium (0.5 mcg/kg, i.v) was given at second log period. In third log period, the animal was injected with methacholine (60 mcg/kg/2 ml, i.v). The methacholine induced bronchoconstriction (expressed as airway resistance (RI value in cmH2O*sec/ml)) was recorded by Buxco apparatus.

LPS induced neutrophilia [3] = assay: LPS induced neutrophilia, Compound 52 and tiotropium; format: in vivo, female SD rats; details: for inhibition at 3 mg/kg: Rattus norvegicus, Neutrophil, po
Experimental: The effect of combination of Compound 52 and tiotropium on LPS induced neutrophilia in female SD rats was evaluated. Female SD rats were grouped as mentioned in Table 6. Compound 52 (3 mg/kg/5 ml) and tiotropium (1 mcg/ml as inhalation for 3 min at the rate of 0.05 ml/min) were administered 2 and 1 hour prior to LPS exposure respectively. LPS was nebulized at concentration of 100 mcg ml^−1 for 40 min at 0.4 ml min^−1 and a pressure of 1.7 psig in a perspex exposure chamber (1.5×1×1 ft) fitted with nebulizer (RCI Hudson). Control animals were given saline exposure under similar conditions.
as §1, with “Animal was” for “Animals were”, “leukocyte.” for “leukocyte. Remaining”, “min and the” for “min. The”, “estimation.” for “estimation. The smeared slides were fixed by alcohol and stained using Leishman's stain further carried for differential leukocyte count.”

LPS induced neutrophilia [4] = assay: LPS induced neutrophilia, Compound 52 and ipratropium bromide; format: in vivo, male SD rats; details: for inhibition at 6 mg/kg: Rattus norvegicus, Neutrophil, po
Experimental: Animals were grouped as mentioned in Table 8. LPS at a concentration of 100 mcg ml^−1 was nebulized for 40 min at 0.4 ml/min and a pressure of 1.7 psig in a Perspex exposure chamber (1.5×1×1 ft) fitted with nebulizer (RCI Hudson). Control animals were given saline exposure under similar conditions. All the animals were treated as mentioned in Table 8. […] Bronchoalveolar lavage (BAL) was done after 4 h of LPS exposure. Animals were anesthetized with urethane (1.2 gm/kg/5 mL, i.p. in normal saline) and BAL was done with PBS (3 ml). This procedure was repeated three times and the BAL fluid was pooled for the measurement of total leukocyte. Remaining BAL fluid was centrifuged at 4000 rpm for 20 min. The pellet formed in the bottom of the tube was used for the smear preparation for differential leukocyte count estimation. The differential leukocyte count was done using Leishman's stain. […] Statistical significance was set at p<0.05.

human TRPA1 receptor = target: T1, human TRPA1 receptor (Homo sapiens, UniProt O75762); assay: Inhibition of AITC induced cellular uptake of radioactive calcium in human TRPA1 expressing CHO cells; format: cell-based; details: read-out: hTRPA1 IC50 values
T1 construct: expressed in transfected cells; host or cells: CHO cells
T1 sequence (O75762 whole entry): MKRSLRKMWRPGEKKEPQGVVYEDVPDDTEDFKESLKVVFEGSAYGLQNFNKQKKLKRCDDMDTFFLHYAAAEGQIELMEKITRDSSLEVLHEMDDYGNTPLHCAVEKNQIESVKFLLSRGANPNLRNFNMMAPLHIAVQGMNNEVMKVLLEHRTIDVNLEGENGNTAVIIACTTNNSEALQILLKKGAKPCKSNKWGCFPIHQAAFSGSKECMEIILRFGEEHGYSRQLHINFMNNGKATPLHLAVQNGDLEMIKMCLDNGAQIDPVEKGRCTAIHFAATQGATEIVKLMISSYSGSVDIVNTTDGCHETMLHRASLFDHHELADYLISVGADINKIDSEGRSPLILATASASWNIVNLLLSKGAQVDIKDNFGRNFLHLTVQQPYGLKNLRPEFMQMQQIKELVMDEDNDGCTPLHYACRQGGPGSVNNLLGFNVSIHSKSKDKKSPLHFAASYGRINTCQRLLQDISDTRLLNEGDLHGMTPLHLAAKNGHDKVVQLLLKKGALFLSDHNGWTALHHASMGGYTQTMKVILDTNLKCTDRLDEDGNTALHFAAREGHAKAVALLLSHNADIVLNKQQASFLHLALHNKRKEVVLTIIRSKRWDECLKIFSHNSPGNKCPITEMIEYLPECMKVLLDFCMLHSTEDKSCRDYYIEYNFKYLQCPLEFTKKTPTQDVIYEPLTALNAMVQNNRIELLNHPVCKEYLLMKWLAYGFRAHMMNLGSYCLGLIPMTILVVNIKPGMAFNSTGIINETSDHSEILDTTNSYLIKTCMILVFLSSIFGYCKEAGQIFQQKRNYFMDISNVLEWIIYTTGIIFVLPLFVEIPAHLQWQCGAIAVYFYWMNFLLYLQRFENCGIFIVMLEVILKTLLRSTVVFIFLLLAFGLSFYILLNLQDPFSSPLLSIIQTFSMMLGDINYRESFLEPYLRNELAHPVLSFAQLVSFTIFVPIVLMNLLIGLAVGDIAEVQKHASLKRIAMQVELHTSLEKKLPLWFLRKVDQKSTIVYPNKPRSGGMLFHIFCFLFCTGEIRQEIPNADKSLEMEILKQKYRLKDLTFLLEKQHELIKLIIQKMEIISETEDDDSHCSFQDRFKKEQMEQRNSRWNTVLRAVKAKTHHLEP
Experimental: The human IC50 values were measured by the following method:
The inhibition of TRPA1 receptor activation was measured as inhibition of allylisothiocyanate (AITC) induced cellular uptake of radioactive calcium.

[5] = Compound 52 10 mg/kg i.p. 4 hour prior, tiotropium bromide 0.5 mcg/kg i.v., methacholine 60 mcg/kg i.v.
[6] = BAL 4 h after LPS, Compound 52 3 mg/kg p.o., tiotropium 1 mcg/ml inh
[7] = BAL 4 h after LPS, Compound 52 6 mg/kg p.o., ipratropium 1 mg/ml inh
[8] = 4 h, read-out: No of neutrophils, % inhibition (mean ± S.E.M.)

Compound	No of neutrophils (mean ± S.E.M.) (LPS induced neutrophilia [1])	inhibition at 3 mg/kg (LPS induced neutrophilia [1]) [%]	Mean airway resistance (Mean ± SEM) [2, 5] [cmH2O*sec/ml]	No of neutrophils (mean ± S.E.M.) (LPS induced neutrophilia [3]; [6])	No of neutrophils (mean ± S.E.M.) (LPS induced neutrophilia [4]; [7])	further results
O=C(O[C@H]1C[N+]2(CCCOc3ccccc3)CCC1CC2)C(O)(c1cccs1)c1cccs1.[Br-] [Aclidinium bromide, [(8R)-1-(3-phenoxypropyl)-1-azoniabicyclo[2.2.2]octan-8-yl]2-hydroxy-2,2-dithiophen-2-ylacetate bromide, reference compound]	7.13 ± 1.03	21.1	–	–	–	–
Cn1c(=O)c2c(CC(=O)Nc3nc(-c4ccc(F)c(C(F)(F)F)c4F)cs3)csc2n(C)c1=O [Compound 52]	6.73 ± 0.72	20.4	0.77 ± 0.11	6.7 ± 0.9	8.4 ± 0.8	inhibition at 10 mg/kg [2, 5]: 37.9 ± 6.7%; inhibition at 3 mg/kg (LPS induced neutrophilia [3]; BAL 4 h after LPS, Compound 52 3 mg/kg p.o., tiotropium 1 mcg/ml inh, read-out: No of neutrophils, % inhibition (mean ± S.E.M.) (converted)): 17.9%; inhibition at 6 mg/kg (LPS induced neutrophilia [4]; BAL 4 h after LPS, Compound 52 6 mg/kg p.o., ipratropium 1 mg/ml inh, read-out: No of neutrophils, % inhibition (mean ± S.E.M.) (converted)): -3.2%
Cn1c(=O)c2c(CC(=O)/N=c3\scc(-c4ccc(F)c(C(F)(F)F)c4F)n3COP(=O)(O)O)csc2n(C)c1=O [Compound 96]	–	–	–	–	–	IC50 (human TRPA1 receptor): 559 nM
CC(C)[N+]1(C)[C@@H]2CC[C@H]1C[C@@H](OC(=O)C(CO)c1ccccc1)C2 (some centres unmarked) [Ipratropium bromide, 8-azoniabicyclo (3.2.1) octane, 3-(3-hydroxy-1-oxo-2-phenylpropoxy)-8-methyl-8-(1-methylethyl)-, bromide monohydrate, reference compound]	–	–	–	–	6.2 ± 0.6	inhibition at 6 mg/kg (LPS induced neutrophilia [4]; [8]): 23%
C[N+]1(C)[C@@H]2C[C@@H](OC(=O)C(O)(c3cccs3)c3cccs3)C[C@H]1[C@@H]1O[C@@H]12 [Tiotropium bromide, (1α, 2β, 4β, 5α, 7β)-7-[(hydroxydi-2-thienylacetyl)oxy]-9,9-dimethyl-3-oxa-9-azoniatricyclo[3.3.1.02,4] nonane bromide monohydrate, reference compound]	–	–	1.51 ± 0.32	6.8 ± 0.7	–	inhibition at 10 mg/kg [2]: -10.7 ± 23.4%; inhibition at 3 mg/kg (LPS induced neutrophilia [3]; [8]): 18.9%
